# “Also recorded” adds a separate entry of the source.
# Columns and labels:
# [1] = test system: primary human neonatal dermal fibroblasts (hNDFs); experiment: Spatial iN reprogramming in 3D spheroids (Tuj1 staining); format: cell-based; conditions: 3 days of reprogramming, relative to no-treatment controls
# Text: For the reduction to practice, primary human neonatal dermal fibroblasts (hNDFs) were transduced with doxycycline (Dox)-inducible lentiviral vectors for the BAMN factors. After Dox induction in monolayer to ensure unbiased activation of the transgenes, hNDFs were either plated onto Matrigel-coated cover slips as 2D controls or centrifuged in microwells to form 3D aggregates, or “spheroids” (FIG. 9A). The expression of neuron-specific β-tubulin III (Tuj1) was used as a marker of neuronal fate, as is convention. Tuj1 expression began earlier in spheroids than in 2D culture, appearing as early as day 2 (two days after Dox induction and one day after spheroid formation) (FIG. 9BC). To evaluate relative reprogramming efficiency, spheroids were replated onto Matrigel-coated cover slips after three days without enzymatic disaggregation.
# Direct reprogramming involves both disruption of the existing regulatory network (generally early on) and establishment of another. The initial nonspecific disruption is often mechanistically associated with cell cycle regulation, cell senescence, chromatin inactivation, and genome stability. To assess the impact of mechanobiological changes associated with spheroid culture on direct reprogramming, primary human neonatal dermal fibroblasts (hNDFs) were transduced with doxycycline (dox)-inducible lentiviral vectors for the BAMN factors. […]
# [2] = test system: BAM-transduced fibroblasts; experiment: iN reprogramming of BAM-transduced fibroblasts with chemical/siRNA treatment and microfluidic squeezing (Tuj1 staining, day 7); format: cell-based, mouse; conditions: for iN reprogramming efficiency: agent alone without squeezing, vs control, Bix01294 1 μM, JIB-04 100 nM, Decitabine 0.5 μM, 24 hours; for increase of iN conversion: alone, at its optimal concentration; for nuclear deformation-induced iN reprogramming efficiency: pre-treatment followed by squeezing in 7-μm microchannels, vs squeezed-only group
# Protocol: Fibroblasts were isolated from ear tissues of adult (1 month-old) C57BL/6 mice, Tau-EGFP reporter mice (Jackson Laboratory, 004779) and R26-M2rtTA;Col1a1-tetO-H2B-GFP compound mutant mice (Jackson Laboratory, 016836), and expanded in fibroblast medium: DMEM (Gibco, 11965), 10% fetal bovine serum (FBS; Gibco, 26140079) and 1% penicillin/streptomycin (GIBCO, 15140122). For all experiments, passage-2 cells were used and synchronized upon reaching 80% confluency using DMEM with 1% FBS for 24 hours before the transduction with viruses containing BAM constructs. The following day (day 0) the medium was changed to mouse embryonic fibroblasts (MEF) medium containing doxycycline (2 ng/ml, Sigma) to initiate the expression of the transgenes and thus, reprogramming. After 6 hours, transduced fibroblasts were passaged, and either subjected to microfluidic deformation using microchannels of various widths. Cells were then seeded onto glass slides coated with 0.1 mg/mL fibronectin (ThermoFisher, 33016015) overnight at a density of 3,000 cells/cm^2. Twenty-four hours later (day 1), cells were cultured in N2B27 medium: DMEM/F12 (Gibco, 11320033), N-2 supplement (Gibco, 17502048), B-27 supplement (Gibco, 17504044), 1% penicillin/streptomycin, and doxycycline (2 ng/ml), and half medium changes were performed every 2 days. On day 7 after microfluidic deformation, cells were fixed and stained for Tuj1 to determine the reprogramming efficiency. iN cells were identified based on positive Tuj1 staining and a neuronal morphology. The reprogramming efficiency was determined as the percentage of iN cells on day 7 relative to the number of the cells initially seeded. For long-term studies where maturation and functionality of the iN cells were examined, cells were kept in culture for 5 weeks. Reprogramming of iPSC from wild-type fibroblasts was performed as described previously^18.
# To determine the role of H3K9 methylation in microfluidic device-induced iN reprogramming, BAM-transduced fibroblasts were treated with the H3K9 methyltransferase inhibitor Bix-01294 (Cayman chemical, 13124) or demethylase inhibitor JIB-04 (Cayman chemical, 15338) at the indicated concentrations for 24 hours prior to introduction into the microdevice. Parallel conditions with DMSO served as a control. The iN reprogramming efficiency was determined via Tuj1 staining 7 days after squeezing.
# To determine the involvement of ion channels in microfluidic device-induced iN reprogramming, calcium channel blocker Amlodipine (Cayman chemical, 14838), potassium channel blocker Quinine (Cayman chemical, 23958) and sodium channel blocker procainamide (Cayman chemical, 24359) were used to inhibit calcium, potassium, and sodium ion channels, respectively. BAM-transduced fibroblasts were treated with small molecule blockers at the indicated concentrations for 12 hours prior to being introduced into the microfluidic device. Parallel conditions with DMSO served as a control. The iN reprogramming efficiency was determined via Tuj1 staining 7 days after squeezing.
# H3K9me3 = H3K9me3 level in fibroblasts (immunostaining); format: cell-based, mouse; conditions: for H3K9me3 level: agent alone
# Protocol: Samples collected for immunofluorescence staining at the indicated time points were washed once with PBS and fixed in 4% paraformaldehyde for 15 minutes. Samples were washed three times with PBS for 5 minutes each and permeabilized using 0.5% Triton X-100 for 10 minutes. After three subsequent PBS washes, samples were blocked with 5% normal donkey serum (NDS; Jackson Immunoresearch, 017000121) in PBS for 1 hour. Samples were incubated with primary antibodies (Supplementary Table S1 in Song et al.) in antibody dilution buffer (1% normal donkey serum (NDS)+0.1% Triton X-100 in PBS) for either 1 hour or overnight at 4° C. followed by three PBS washes and a 1-hour incubation with Alexa Fluor® 488- and/or Alexa Fluor® 546-conjugated secondary antibodies (Molecular Probes). Nuclei were stained with DAPI in PBS for 10 minutes. Epifluorescence images were collected using a Zeiss Axio Observer Z1 inverted fluorescence microscope and analyzed using ImageJ. Confocal images were collected using a Leica SP8-STED/FLIM/FCS Confocal and analyzed using ImageJ.
# Average lamin and histone marker intensities per nuclei were quantified using an ImageJ macro. Gaussian blur, thresholding, watershed, and analyze particle functions were applied to the DAPI channel to create individual selections for each nucleus. This mask was applied to the corresponding stain image to measure the average fluorescence intensity within each nucleus.
# [3] = test system: BAM-transduced fibroblasts; experiment: iN reprogramming of BAM-transduced fibroblasts with cytoskeletal and adhesion inhibitors (TUBB3+ iN cells, 2 weeks); format: cell-based, mouse; conditions: Y-27632 20 μM, nocodazole 0.3 μM, cytochalasin D 1 μM, jasplakinolide 0.05 μM; U0126 various doses
# Protocol: To examine whether these changes in cell stiffness, actin structure and expression of contractility-mediating genes were involved in iN reprogramming, we evaluated the effects of disrupting the cytoskeleton using small molecule inhibitors. For these experiments, BAM-transduced fibroblasts were reprogrammed as in FIG. 1A and chemical compounds known to perturb the cytoskeleton were added to the culture medium on day 1 to evaluate their effects on the reprogramming process. […] The reprogramming efficiency was determined as the percentage of TUBB3*-iN cells normalized to the number of cells plated at 24 hours post-seeding (i.e., day 0). First, we tested whether disruption of cytoskeletal contractility could influence the direct reprogramming of fibroblasts into neurons using blebbistatin, a non-muscle myosin II inhibitor^22-24. We observed that iN cells could be derived in the absence and presence of blebbistatin (FIG. 3A). […] In particular, treatment with 10 μM blebbistatin generated the highest number of iN cells and increased the reprogramming efficiency by approximately 4.5-fold compared to the control, therefore, this concentration was used in all subsequent experiments. […] As Ascl1 has been identified as a pioneer factor for iN reprogramming and transduction of Ascl1 alone is sufficient to generate iN cells^25,26, we further investigated whether blebbistatin could influence iN conversion by Ascl1 induction.
# After transduction, mouse fibroblasts were seeded onto multi-well tissue culture-treated polystyrene dishes (Falcon) coated with laminin (0.1 mg/ml, Corning) at 4,000 cells per cm^2. Twenty-four hours after seeding, the medium was replaced to MEF medium containing doxycycline (2 μg/ml, Sigma). The following day (i.e., day 1) the medium was changed to N3 medium (DMEM/F12 [GIBCO]+N2 supplement [Invitrogen]+B27 supplement [Invitrogen]+1% penicillin/streptomycin [Gibco]+ doxycycline [2 μg/ml, Sigma]) and the cultures were maintained in this medium for the duration of the experiments. For Ascl1-only reprogramming, N3 medium was further supplemented with BDNF (5 ng/ml, R&D systems) and GDNF (5 ng/ml, R&D systems) after day 7. For cytoskeletal and cell adhesion disruptions, Blebbistatin (Millipore), Y-27632 (20 μM; Cayman Chemical), Nocodazole (0.3 μM; Sigma), Cytochalasin D (1 μM; Sigma), Jasplakinolide (0.05 μM; Cayman Chemical) and PF573228 (Sigma) were administered in N3 medium on day 1 and for the first 7 days of reprogramming (unless stated otherwise) and used at the indicated concentrations. Culture medium was replenished every 2 days during reprogramming to maintain the activity of the small molecules. After culturing for the desired length (14 days for BAM and 21 days for Ascl1 only), the induced neuronal (iN) cells were analyzed and the reprogramming efficiency was determined.
# The reprogramming efficiency was determined by as the percentage of TUBB3^+ iN cells in each condition normalized to the number of cells plated at 24 hours post-seeding. Epifluorescence images were collected using a Zeiss Axio Observer.D1, Zeiss Axio Observer.Z1, and ImageXpress Micro XLS System (Molecular Devices), whereas confocal images were acquired using a Zeiss LSM710 microscope and Leica SP8 Confocal Laser Scanning microscope.
# histone marks = experiment: Immunofluorescence of histone marks in non-transduced fibroblasts; format: cell-based, mouse; conditions: for euchromatin marks (AcH3, H3K4me3, H3K4me1): global, 10 μM blebbistatin or 5 μM PF573228, 2 hours, vs control; for histone trends compared with blebbistatin: other cytoskeletal compounds
# Protocol: For immunostaining, cells were fixed with 4% paraformaldehyde (Electron Microscopy Sciences), permeabilized with 0.5% Triton-X-100 (Sigma), and blocked with 5% donkey serum (Jackson Immunoresearch) in phosphate buffered saline (PBS). For actin-cytoskeleton staining, samples were incubated with fluorescein isothiocyanate-conjugated phalloidin (Invitrogen) for 1 hour. Primary antibodies were incubated for 1 hour at room temperature or overnight at 4° C., followed by 1-hour incubation with Alexa 488 and/or Alexa 546-labeled secondary antibodies (Molecular Probes). Nuclei were stained with 4,6-diamino-2-phenylindole (DAPI) (Invitrogen).
# Quantification of histone intensity per nuclei was performed using an ImageJ macro. DAPI-stained nuclei were segmented using gaussian blur, thresholding, watershed, and analyze particle functions to identify individual nuclei. This mask was applied to the corresponding stained fluorescence channel to quantify the average fluorescence intensity within each nucleus.
smiles,measurement,setting,value
Cc1cccc(-c2nn(C(=S)Nc3ccccc3)cc2-c2ccnc3ccccc23)n1 [A83-01],"spatial Tuj1+ reprogramming patterns, inhibitor alone",[1],did not affect spatial Tuj1+ reprogramming patterns
COc1cc2nc(N3CCCN(C)CC3)nc(NC3CCN(Cc4ccccc4)CC3)c2cc1OC [Bix01294],iN reprogramming efficiency,[2],partially mimicked the squeezing effect on the reprogramming efficiency
same,increase of iN conversion,[2],about 2 fold
same,nuclear deformation-induced iN reprogramming efficiency,[2],slightly increased the reprogramming efficiency compared to the squeezed-only group
same,H3K9me3 level,H3K9me3,specifically suppressed H3K9me3 in a dose-dependent manner
Nc1ncn([C@H]2C[C@H](O)[C@@H](CO)O2)c(=O)n1 [Decitabine],increase of iN conversion,[2],about 2 fold
Clc1ccc(N/N=C(\c2ccccc2)c2ccccn2)nc1 [JIB-04],iN reprogramming efficiency,[2],reduced the reprogramming efficiency compared to the control
same,nuclear deformation-induced iN reprogramming efficiency,[2],strikingly suppressed nuclear deformation-induced iN reprogramming
same,H3K9me3 level,H3K9me3,significantly increased H3K9me3
same,decrease of H3K9me3 by squeezing,"H3K9me3; pre-treated for 24 hours, then 7-μm channels",much less than the group without JIB-04 treatment
COc1cc(-c2cc(-c3cccc(O)c3)cnc2N)cc(OC)c1OC [K02288],"spatial Tuj1+ reprogramming patterns, inhibitor alone",[1],did not affect spatial Tuj1+ reprogramming patterns
N#CC(=C(/N)Sc1ccccc1N)/C(C#N)=C(\N)Sc1ccccc1N [U0126],reprogramming efficiency relative to control,[3],not significantly altered
C[C@@H](N)[C@H]1CC[C@H](C(=O)Nc2ccncc2)CC1 [Y-27632],reprogramming efficiency relative to control,[3],"increased the yield of iN cells similar to blebbistatin, although to a lesser degree"
C=C1[C@@H](C)[C@H]2[C@H](Cc3ccccc3)NC(=O)[C@]23[C@H](OC(C)=O)/C=C/[C@@](C)(O)C(=O)[C@@H](C)C/C=C/[C@H]3[C@@H]1O [cytochalasin D],"euchromatin marks (AcH3, H3K4me3, H3K4me1)",histone marks,"decreasing euchromatin marks (e.g., AcH3)"
same,histone trends compared with blebbistatin,histone marks,no other cytoskeletal disrupting compounds
same,reprogramming efficiency relative to control,[3],reduced the reprogramming efficiency relative to control; also recorded: inhibiting iN conversion
C/C1=C\[C@H](C)C[C@H](C)OC(=O)C[C@H](c2ccc(O)cc2)NC(=O)[C@@H](Cc2c(Br)[nH]c3ccccc23)N(C)C(=O)[C@H](C)NC(=O)[C@@H](C)C1 [jasplakinolide],"euchromatin marks (AcH3, H3K4me3, H3K4me1)",histone marks,"decreasing euchromatin marks (e.g., AcH3)"
same,histone trends compared with blebbistatin,histone marks,no other cytoskeletal disrupting compounds
same,reprogramming efficiency relative to control,[3],reduced the reprogramming efficiency relative to control; also recorded: inhibiting iN conversion
COC(=O)Nc1nc2ccc(C(=O)c3cccs3)cc2[nH]1 [nocodazole],"euchromatin marks (AcH3, H3K4me3, H3K4me1)",histone marks,"decreasing euchromatin marks (e.g., AcH3)"
same,histone trends compared with blebbistatin,histone marks,no other cytoskeletal disrupting compounds
same,reprogramming efficiency relative to control,[3],resulted in a reduction in the reprogramming efficiency; also recorded: inhibiting iN conversion
CCCC(CCC)C(=O)O [valproic acid],iN reprogramming efficiency,[2],slightly increased iN reprogramming efficiency
same,nuclear deformation-induced iN reprogramming efficiency,[2],additive to mechanical squeezing
